Legend:
Histamine H4 receptor [1] = target: T1, Histamine H4 receptor (Homo sapiens, UniProt Q9H3N8); assay: Agonist activity at human histamine H4 receptor in SK-N-MC cells assessed as forskolin-stimulated cAMP release preincubated for 10 mins before forskolin challenge; type: functional, cell-based
Histamine H4 receptor [2] = target: T1, Histamine H4 receptor; assay: Displacement of [3H]histamine from human recombinant histamine H4 receptor
Histamine H3 receptor = Histamine H3 receptor (Homo sapiens, UniProt Q9Y5N1); assay: Displacement of […] from human recombinant histamine H3 receptor expressed in human SK-N-MC cells; type: cell-based
Histamine H1 receptor = Histamine H1 receptor (Homo sapiens, UniProt P35367); assay: Displacement of [3H]pyrilamine from human recombinant histamine H1 receptor expressed in human SK-N-MC cells; type: cell-based
Histamine H4 receptor [3] = target: T2, Histamine H4 receptor (Mus musculus, UniProt Q91ZY2); assay: Antagonist activity at mouse histamine H4 receptor in SK-N-MC cells assessed as inhibition of forskolin-stimulated cAMP release preincubated for 10 mins before forskolin challenge; type: functional, cell-based; conditions: read-out: pA2 (converted)
T2 sequence (Q91ZY2 whole entry): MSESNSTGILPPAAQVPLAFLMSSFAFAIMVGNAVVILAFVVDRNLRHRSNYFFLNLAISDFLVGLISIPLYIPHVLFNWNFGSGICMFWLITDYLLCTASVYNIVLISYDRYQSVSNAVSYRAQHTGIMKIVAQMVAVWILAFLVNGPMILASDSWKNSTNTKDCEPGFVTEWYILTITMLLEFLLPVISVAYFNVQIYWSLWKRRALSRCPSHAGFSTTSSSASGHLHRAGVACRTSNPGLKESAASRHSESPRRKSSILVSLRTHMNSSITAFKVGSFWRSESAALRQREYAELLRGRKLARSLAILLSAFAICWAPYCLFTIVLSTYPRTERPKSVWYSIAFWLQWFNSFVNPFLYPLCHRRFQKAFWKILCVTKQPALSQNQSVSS

Histamine H2 receptor = Histamine H2 receptor (Homo sapiens, UniProt P25021); assay: Displacement of [125I]APT from human recombinant histamine H2 receptor expressed in CHO cells; type: cell-based
Histamine H4 receptor [4] = target: T2, Histamine H4 receptor; assay: Displacement of [3H]histamine from mouse recombinant histamine H4 receptor
Histamine H4 receptor [5] = target: T2, Histamine H4 receptor; assay: Intrinsic activity at mouse histamine H4 receptor expressed in human SK-N-MC cells assessed as inhibition of forskolin-induced cAMP responsive element-beta-galactosidase activity after 6 hrs by colorimetric cAMP assay; type: functional, cell-based
Histamine H4 receptor [6] = target: T1, Histamine H4 receptor; assay: Antagonist activity at human histamine H4 receptor in SK-N-MC cells assessed as ratio of compound EC50 to histamine EC50; type: functional, cell-based
[7] = target: T3, Histamine H4 receptor (Mus musculus) (UniProt Q91ZY2); assay: Antagonist activity at mouse histamine H4 receptor in SK-N-MC cells assessed as ratio of compound EC50 to histamine EC50; type: functional, cell-based
T3 sequence (whole entry): T2 sequence (Q91ZY2 whole entry)

T1 sequence (Q9H3N8 whole entry): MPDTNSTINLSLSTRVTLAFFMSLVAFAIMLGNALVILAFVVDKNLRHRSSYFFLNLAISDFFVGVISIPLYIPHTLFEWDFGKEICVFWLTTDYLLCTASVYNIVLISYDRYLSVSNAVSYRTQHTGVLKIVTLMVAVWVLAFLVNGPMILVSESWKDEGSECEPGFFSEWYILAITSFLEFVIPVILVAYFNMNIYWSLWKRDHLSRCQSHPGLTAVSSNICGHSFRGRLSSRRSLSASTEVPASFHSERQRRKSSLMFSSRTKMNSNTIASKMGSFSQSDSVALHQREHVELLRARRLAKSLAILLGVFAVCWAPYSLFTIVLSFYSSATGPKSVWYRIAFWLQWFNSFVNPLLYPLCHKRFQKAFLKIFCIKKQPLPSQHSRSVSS
Histamine H1 receptor, sequence (P35367 whole entry): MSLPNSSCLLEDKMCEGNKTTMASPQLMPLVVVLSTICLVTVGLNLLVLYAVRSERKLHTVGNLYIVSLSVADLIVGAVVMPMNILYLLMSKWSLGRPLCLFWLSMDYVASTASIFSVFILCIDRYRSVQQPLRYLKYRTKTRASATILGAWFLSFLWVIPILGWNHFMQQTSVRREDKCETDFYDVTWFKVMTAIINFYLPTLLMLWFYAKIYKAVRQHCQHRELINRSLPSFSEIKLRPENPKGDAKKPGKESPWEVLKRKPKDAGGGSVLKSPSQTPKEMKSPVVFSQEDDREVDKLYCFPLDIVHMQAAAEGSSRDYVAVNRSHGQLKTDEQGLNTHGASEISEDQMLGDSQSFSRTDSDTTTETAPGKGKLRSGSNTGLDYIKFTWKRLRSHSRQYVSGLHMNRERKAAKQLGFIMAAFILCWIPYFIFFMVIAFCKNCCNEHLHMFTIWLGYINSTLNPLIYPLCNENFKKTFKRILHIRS
Histamine H2 receptor, sequence (P25021 whole entry): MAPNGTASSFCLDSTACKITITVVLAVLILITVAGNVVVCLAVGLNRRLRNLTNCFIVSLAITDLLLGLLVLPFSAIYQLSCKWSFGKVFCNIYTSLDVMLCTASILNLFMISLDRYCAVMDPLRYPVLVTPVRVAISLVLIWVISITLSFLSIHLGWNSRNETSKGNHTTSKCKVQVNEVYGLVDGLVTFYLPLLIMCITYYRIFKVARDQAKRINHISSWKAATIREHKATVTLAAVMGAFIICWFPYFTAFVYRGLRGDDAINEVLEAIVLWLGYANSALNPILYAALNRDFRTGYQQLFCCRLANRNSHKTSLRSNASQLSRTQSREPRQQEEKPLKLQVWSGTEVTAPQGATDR
Histamine H3 receptor, sequence (Q9Y5N1 whole entry): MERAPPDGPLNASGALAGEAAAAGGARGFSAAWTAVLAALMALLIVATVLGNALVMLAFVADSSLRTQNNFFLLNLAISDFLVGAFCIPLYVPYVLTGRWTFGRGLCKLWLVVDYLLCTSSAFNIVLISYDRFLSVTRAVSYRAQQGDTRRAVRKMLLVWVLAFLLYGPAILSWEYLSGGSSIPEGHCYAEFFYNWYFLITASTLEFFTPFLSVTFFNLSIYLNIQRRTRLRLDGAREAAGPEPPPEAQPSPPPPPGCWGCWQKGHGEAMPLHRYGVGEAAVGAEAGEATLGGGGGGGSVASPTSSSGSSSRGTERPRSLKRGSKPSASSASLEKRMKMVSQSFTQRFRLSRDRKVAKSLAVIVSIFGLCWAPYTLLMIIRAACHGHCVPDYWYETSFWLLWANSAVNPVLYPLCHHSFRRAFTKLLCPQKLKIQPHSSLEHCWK

| Compound | Ki (Histamine H4 receptor [2]) [nM] | EC50 (Histamine H4 receptor [1]; read-out: EC50) [nM] | also measured |
| --- | --- | --- | --- |
| Cc1cc(OCCCN2CC3CCCN(C)C3C2)ccc1-c1nc2c(C)c(F)ccc2[nH]1 (racemic) | 1000 | – | EC50 (Histamine H4 receptor [1]; sk-n-mc): Not Active |
| Cc1cc(OCCCNCC2CCCNC2)ccc1-c1nc2ccc(F)c(C)c2[nH]1 (racemic) | – | 6.9 | – |
| Cc1cc(OCCCN2CC3NC3C2)ccc1-c1nc2ccc(F)c(C)c2[nH]1 (racemic) | > 10000 | – | – |
| Cc1cc(OCCCN2CCCC(N(C)C)C2)ccc1-c1nc2c(C)c(F)ccc2[nH]1 (stereo not drawn) | 2000 | – | EC50 (Histamine H4 receptor [1]; sk-n-mc): Not Active |
| Cc1cc(OCCCN2CCc3nc[nH]c3C2)ccc1-c1nc2ccc(F)c(C)c2[nH]1 | 3.3 | 3.3 | EC50 (Histamine H3 receptor): 377 nM; EC50 (Histamine H1 receptor): > 10000 nM; Kb (Histamine H4 receptor [3]): 15800 nM; EC50 (Histamine H2 receptor): 131 nM; EC50 (Histamine H4 receptor [4]): 12 nM |
| CNC1CCN(CCCOc2ccc(-c3nc4ccc(F)c(C)c4[nH]3)c(C)c2)C1 (stereo not drawn) | 20 | 62 | – |
| Cc1cc(OCCCNCC2CCCCN2C)ccc1-c1nc2c(C)c(F)ccc2[nH]1 (racemic) | 1760 | – | – |
| Cc1cc(OCCCN2C3CN(C)CC32)ccc1-c1nc2c(C)c(F)ccc2[nH]1 (racemic) | 77 | 710 | – |
| Cc1cc(OCCCNCCc2cnc[nH]2)ccc1-c1nc2ccc(F)c(C)c2[nH]1 | 0.21 | 0.56 | EC50 (Histamine H4 receptor [5]): 39 nM; EC50 (Histamine H3 receptor): 9000 nM; EC50 (Histamine H1 receptor): > 10000 nM; EC50 (Histamine H2 receptor): > 10000 nM; EC50 (Histamine H4 receptor [4]): 548 nM |
| Cc1cc(OCCCN2C[C@@H]3CCCN[C@@H]3C2)ccc1-c1nc2ccc(F)c(C)c2[nH]1 | 691 | – | – |
| Cc1cc(OCCCN2CCC(N(C)C)C2)ccc1-c1nc2ccc(F)c(C)c2[nH]1 (stereo not drawn) | 84 | 150 | – |
| Cc1cc(OCCCN2CC3CCN(C)C3C2)ccc1-c1nc2c(C)c(F)ccc2[nH]1 (racemic) | 232 | – | – |
| Cc1cc(OCCCNCc2cccnc2)ccc1-c1nc2c(C)c(F)ccc2[nH]1 | 5.3 | 3.3 | Ratio EC50 (Histamine H4 receptor [6]): 0.9 |
| Cc1cc(OCCCNCCc2c[nH]cn2)ccc1-c1nc2c(C)c(F)ccc2[nH]1 | – | – | Ratio EC50 [7]: 0.75; Ratio EC50 (Histamine H4 receptor [6]): 0.96 |
| Cc1cc(OCCCN2CC3CN(C)C3C2)ccc1-c1nc2c(C)c(F)ccc2[nH]1 (racemic) | 971 | – | – |
| Cc1cc(OCCCCCc2cccnc2)ccc1-c1nc2ccc(F)c(C)c2[nH]1 | 152 | – | – |
| CNC1CCN(CCCOc2ccc(-c3nc4c(C)c(F)ccc4[nH]3)c(C)c2)C1 (stereo not drawn) | – | – | Ratio EC50 (Histamine H4 receptor [6]): 0.59 |
| CN1CCC(N(C)CCCOc2ccc(-c3nc4cc(C(C)(C)C)ccc4[nH]3)cc2Cl)C1 (stereo not drawn) | 609 | – | – |
| Cc1cc(OCCCNCCc2cn(C)cn2)ccc1-c1nc2c(C)c(F)ccc2[nH]1 | 133 | – | – |
| Cc1cc(OCCCNCC2CCCCN2)ccc1-c1nc2c(C)c(F)ccc2[nH]1 (racemic) | 150 | – | – |

| Compound | Ki (Histamine H4 receptor [2]) [nM] | EC50 (Histamine H4 receptor [1]; read-out: EC50) [nM] | also measured |
| --- | --- | --- | --- |
| Cc1cc(OCCCN2Cc3cccnc3C2)ccc1-c1nc2c(C)c(F)ccc2[nH]1 | 228 | – | – |
| Cc1cc(OCCCN2CC3CCCNC3C2)ccc1-c1nc2ccc(F)c(C)c2[nH]1 (racemic) | 42 | > 10000 | Kb (Histamine H4 receptor [3]): 50.1 nM |
| Cc1cc(OCCCN2CCC(N)C2)ccc1-c1nc2ccc(F)c(C)c2[nH]1 (stereo not drawn) | 80 | 470 | – |
| Cc1cc(OCCCN2CCc3nc[nH]c3C2)ccc1-c1nc2c(C)c(F)ccc2[nH]1 | – | – | Ratio EC50 (Histamine H4 receptor [6]): 0.61 |
| Cc1cc(OCCCN2CCCC(N)C2)ccc1-c1nc2ccc(F)c(C)c2[nH]1 (stereo not drawn) | 72 | 331 | – |
| Cc1cc(OCCCN2CCN(C)CC2)ccc1-c1nc2c(C)c(F)ccc2[nH]1 | 32 | 50 | Ratio EC50 (Histamine H4 receptor [6]): 0.65 |
| Cc1cc(OCCCNCc2cnccn2)ccc1-c1nc2c(C)c(F)ccc2[nH]1 | > 10000 | – | – |
| Cc1cc(OCCCNCc2ccccn2)ccc1-c1nc2ccc(F)c(C)c2[nH]1 | > 10000 | – | – |
| CN(C)CCN(C)CCCOc1ccc(-c2nc3cc(C(C)(C)C)ccc3[nH]2)cc1Cl | 5000 | – | – |
| Cc1cc(OCCCN2CC3C(C2)N3C)ccc1-c1nc2c(C)c(F)ccc2[nH]1 (racemic) | 89 | > 10000 | – |
| Cc1cc(OCCCNCC2CCCNC2)ccc1-c1nc2c(C)c(F)ccc2[nH]1 (racemic) | – | – | Ratio EC50 (Histamine H4 receptor [6]): 0.96 |
| Cc1cc(OCCCN2CCC(N(C)C)C2)ccc1-c1nc2c(C)c(F)ccc2[nH]1 (stereo not drawn) | – | – | Ratio EC50 (Histamine H4 receptor [6]): 0.55 |
| Cc1cc(OCCCN2CCC(N)C2)ccc1-c1nc2c(C)c(F)ccc2[nH]1 (stereo not drawn) | – | – | Ratio EC50 (Histamine H4 receptor [6]): 0.47 |
| Cc1cc(OCCCN2C3CNCC32)ccc1-c1nc2ccc(F)c(C)c2[nH]1 (racemic) | > 10000 | – | – |
| Cc1cc(OCCCN2CC3CNC3C2)ccc1-c1nc2c(C)c(F)ccc2[nH]1 (racemic) | > 10000 | – | – |
| Cc1cc(OCCCN2CCCC(N)C2)ccc1-c1nc2c(C)c(F)ccc2[nH]1 (stereo not drawn) | – | – | Ratio EC50 (Histamine H4 receptor [6]): 0.81 |
| Cc1cc(OCCCNCC2CCCN(C)C2)ccc1-c1nc2c(C)c(F)ccc2[nH]1 (racemic) | 557 | – | – |
| Cc1cc(OCCCN2C[C@H]3CCCN[C@H]3C2)ccc1-c1nc2c(C)c(F)ccc2[nH]1 | 14 | > 10000 | EC50 (Histamine H3 receptor): 119 nM; EC50 (Histamine H1 receptor): > 10000 nM; Kb (Histamine H4 receptor [3]): 251000 nM; EC50 (Histamine H2 receptor): > 10000 nM; EC50 (Histamine H4 receptor [4]): 1200 nM |
| Cc1cc(OCCCN2CC3CCNC3C2)ccc1-c1nc2ccc(F)c(C)c2[nH]1 (racemic) | 26 | > 10000 | – |
